Data as given in ChEMBL document CHEMBL3244052, “Conformational analogues of dopamine. Synthesis and pharmacological activity of (E)- and (Z)-2-(3,4-dihydroxyphenyl)cyclopropylamine hydrochlorides” (J Med Chem, 1979).
Calls of active or inactive are those of the source. The rule behind the calls is not given here.

Assays:
[1] = Agonist activity at alpha-adrenergic receptor in rabbit thoracic aorta assessed as […] contraction; type: tissue-based, Oryctolagus cuniculus
Canis familiaris [2] = assay: Cardiac stimulant activity in iv dosed dog assessed as increase in heart rate; type: functional, Canis lupus familiaris
Canis familiaris [3] = assay: Cardiac stimulant activity in iv dosed dog assessed as dose producing 50% increase in contractile force; type: functional, Canis lupus familiaris
Canis familiaris [4] = assay: Dopaminergic activity in mongrel dog assessed as renal vasodilation up to 4.96 x 10^-6 M administered to renal artery; type: functional, organism-based; details: Canis lupus familiaris

| Structure (SMILES) | EC50 [1] | Activity (Canis familiaris [2]) | Activity (Canis familiaris [3]) | ED50 (Canis familiaris [4]) |
| --- | --- | --- | --- | --- |
| CNC[C@H](O)c1cccc(O)c1.Cl [PHENYLEPHRINE HYDROCHLORIDE] | 2.3 ×10⁻⁷ mol | – | – | – |
| Cl.NCCc1ccc(O)c(O)c1 [DOPAMINE HYDROCHLORIDE] | 102 ×10⁻⁷ mol | 5 bpm | 4.8 ×10⁻⁸ mol/kg | – |
| Cl.N[C@@H]1C[C@H]1c1ccc(O)c(O)c1 (racemic) | 94 ×10⁻⁷ mol | -2 bpm | 19.5 ×10⁻⁸ mol/kg | inactive |
| CC(C)NCC(O)c1ccc(O)c(O)c1.Cl (centres undefined) [ISOPROTERENOL HYDROCHLORIDE] | – | 16 bpm | 0.014 ×10⁻⁸ mol/kg | – |
| Cl.N[C@@H]1C[C@@H]1c1ccc(O)c(O)c1 (racemic) | 457 ×10⁻⁷ mol | 32 bpm | 312.3 ×10⁻⁸ mol/kg | inactive |
